Laboratory results as given in patent publication US20080098491A1, “MOUSE MODELS TO STUDY CACHEXIA” (ZOLTAN LABORATORIES LLC, priority 2006, published 2008).

System: MXT mouse mammary tumor
Test: Cisplatin-treated MXT mouse mammary tumor model, purified PALP, AT, holo-TF, apo-TF (Example 9, Experiment 2)
Assay type: in vivo
Details: every second day from day 7 (6-times): cisplatin 3-mg/kg i.p., proteins 12-mg/kg s.c.
Excerpt: The B16 mouse melanoma and MXT mouse mammary tumors were developed in first generation hybrid BDF1 (C57 B1 female×DBA/2 male) adult female mice kept at specified pathogen free (SPF) hygienic level. These models were chosen for these experiments because these mice have the complete immune system, and both tumors grow very rapidly. To develop the tumors, B16 and MXT tumor tissue fragments of about 0.1-cm^3 were surgically implanted subcutaneously into the intrascapular region to develop the tumors. Each tumor fragment contained about 1-1.5×10^6 cells. The animals were kept in macrolon cages on ventilated rack at 22-24° C. (50-60% humidity) with lighting regimen of 12/12 h light/dark. The animals had free access to tap water and were fed with sterilized standard diet (Charles River VRF1, Germany) ad libitum. The animals were taken care of according to the “Guiding Principle for the care and use of Animals” based upon the Helsinki declaration and they were approved by the local ethical committee.
In case of both tumor models the tumor size was usually in the range of 0.2 to 0.5-g when treatments started 7-11 days after tumor implantation; the mice were selected so that in the same treatment group the difference in tumor size was no greater than 0.1 gram. In some experiments, the test proteins were suspended in physiological saline and injected in 50-μl volume subcutaneously in the vicinity of tumor (within 1-cm of tumor margin). In other experiments, the test proteins were dispersed in Vaselinum cholesteratum and used topically; 150-mg cream was applied on the tumor and the vicinity of tumor area (with about 0.5-cm of the tumor margin). The tumor volume was determined by using calipers; this technique is well known to one having ordinary skill in the art. Tumor volume was calculated according to the generally accepted formula: V=a^2×b×7r/6, where “a” and “b” mean the shortest and longest diameter, respectively, of the measured tumor.
Experiment 2. The commercial PALP used in this model for Exp. 1 was composed of PALP (˜10%), TF (˜12%), AT (˜30%), albumin (˜35%) and the degradation products of TF (˜13%). […] In this experiment, it was determined whether the other two major proteins, i.e. TF and AT, present in the commercial PALP preparation in addition to PALP, also influence cisplatin-induced loss of body weight or not. The mouse MXT mammary tumor was developed as described in Example 3. In the first group, animals remained untreated during the whole observation period. In the second group, starting on the 7th day after tumor implantation, mice were administered 3-mg per 1-kg of cisplatin i.p. 6-times every second day. In the third group, starting on the 7th day after tumor implantation, mice were simultaneously administered 3-mg per 1-kg of cisplatin i.p. and 12-mg per 1-kg of purified PALP s.c. In the fourth group, starting on the 7th day after tumor implantation, mice were simultaneously administered 3-mg per 1-kg of cisplatin i.p. and 12-mg per 1-kg of highly purified AT s.c. In the fifth group, starting on the 7th day after tumor implantation, mice were simultaneously administered 3-mg per 1-kg of cisplatin i.p. and 12-mg per 1-kg of commercial holo-TF (h-TF, T 0665 in the Sigma catalog) s.c. In the sixth group, starting on the 7th day after tumor implantation, mice were simultaneously administered 3-mg per 1-kg of cisplatin i.p. and 12-mg per 1-kg of commercial apo-TF (a-TF, T 2036 in the Sigma catalog) s.c. Holo-TF contained 1,100-1,600 μg iron per gram protein while apo-TF was essentially iron-free. Each treatment with the proteins was also performed 6-times on every second day simultaneously with the cisplatin treatment. Each group included 7 animals. The mean values for total weight, tumor weight and body weight (the difference between total and tumor weight) are shown in gram in TABLE 7.

N.N.[Cl][Pt][Cl] [Cisplatin, cisplatin]
Body weight (total weight minus tumor weight) (day 7 after transplantation): 22.25 g
Total weight (day 7 after transplantation): 22.6 g
Tumor weight (day 7 after transplantation): 0.35 g
Body weight (total weight minus tumor weight) (day 11 after transplantation): 21.25 g
Total weight (day 11 after transplantation): 22.7 g
Tumor weight (day 11 after transplantation): 1.45 g
Body weight (total weight minus tumor weight) (day 13 after transplantation): 20.05 g
Total weight (day 13 after transplantation): 21.9 g
Tumor weight (day 13 after transplantation): 1.85 g
Body weight (total weight minus tumor weight) (day 15 after transplantation): 18.1 g
Total weight (day 15 after transplantation): 20.8 g
Tumor weight (day 15 after transplantation): 2.7 g
Body weight (total weight minus tumor weight) (day 18 after transplantation): 16.8 g
Total weight (day 18 after transplantation): 20.3 g
Tumor weight (day 18 after transplantation): 3.5 g
